Assay results published in paper PMC6152678, “In Vitro Comparative Study of the Inhibitory Effects of Mangiferin and Its Aglycone Norathyriol towards UDP-Glucuronosyl Transferase (UGT) Isoforms” (Molecules : A Journal of Synthetic Chemistry and Natural …, 2017).

Legend:
[1] = biological target: T1, UGT2B4 (Homo sapiens, UniProt P06133); experiment: Inhibition of recombinant UGT-catalyzed 4-MU glucuronidation; format: biochemical; conditions: pH 7.4, probe 4-methylumbelliferone (4-MU), 1000 μM, 100 μM compound, 4-MU probe substrate, negative = activation
T1 construct: purchased BD Gentest Corp. (Woburn, MA, USA); host or cells: baculovirus-infected insect cells
T1 sequence (P06133 24-528): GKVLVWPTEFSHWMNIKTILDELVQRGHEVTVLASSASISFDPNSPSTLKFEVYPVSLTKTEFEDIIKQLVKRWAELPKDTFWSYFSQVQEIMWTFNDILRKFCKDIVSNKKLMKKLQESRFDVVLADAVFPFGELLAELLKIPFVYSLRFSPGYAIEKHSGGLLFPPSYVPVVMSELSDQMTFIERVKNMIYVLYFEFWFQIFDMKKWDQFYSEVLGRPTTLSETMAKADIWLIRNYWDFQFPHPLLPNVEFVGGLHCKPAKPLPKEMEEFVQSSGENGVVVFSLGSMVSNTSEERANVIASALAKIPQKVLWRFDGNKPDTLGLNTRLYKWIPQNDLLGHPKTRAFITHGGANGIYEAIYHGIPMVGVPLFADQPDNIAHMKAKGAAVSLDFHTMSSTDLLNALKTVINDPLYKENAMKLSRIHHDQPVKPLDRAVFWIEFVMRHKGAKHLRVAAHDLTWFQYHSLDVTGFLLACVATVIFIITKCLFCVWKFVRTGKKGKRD
Experimental: (§1) Sigma-Aldrich (St Louis, MO, USA) provided the following constituents in the incubation mixture: 4-methylumbelliferone (4-MU), 4-methylumbelliferone-β-D-glucuronide (4-MUG), Tris-HCl, 7-hydroxycoumarin, and uridine-diphosphoglucuronic acid (UDPGA) (trisodium salt). All other compounds were of high-performance liquid chromatography (HPLC) grade or of the highest grade commercially available. For enzyme sources, recombinant UGT isoforms expressed in baculovirus-infected insect cells were purchased from BD Gentest Corp. (Woburn, MA, USA), including UGT1A1, 1A3, 1A6, 1A7, 1A8, 1A9, 1A10, 2B4, 2B7, 2B15, and 2B17.
(§2) 4-MU, a nonspecific probe substrate for all the UGT isoforms, was employed to investigate the inhibition of MEF and NIR towards the activity of UGT isoforms. The incubation and analytical methods have been previously described. […] MEF and NIR were dissolved in the DMSO to make a stock solution of 20 mM, and various concentrations of working solutions were prepared through dilution with DMSO. 4-MU was used as a non-selective substrate of UGTs. There was a 5-min pre-incubation step at 37 °C before the reaction was initiated by the addition of UDPGA. 4-MU and inhibitors were previously dissolved in DMSO, and the total concentration of DMSO was 1%. The reactions were continued at 37 °C for 120 min for UGT1A1, UGT1A3, UGT1A10, UGT2B4, UGT2B7, UGT2B15 and UGT2B17, 30 min for UGT1A6, UGT1A7, UGT1A8, and UGT1A9, respectively. Reactions were terminated by the addition of 100 μL acetonitrile with 7-hydroxycoumarin (100 μM) as internal standard. The incubation mixtures were then centrifuged at 12,000 r/min for 10 min. 2 μL supernatant was injected into the UPLC system for analysis. An ACQUITY UPLC System (Waters, Milford, MA, USA) equipped with UV detector was used to analyze the samples, and the separation of all the compounds were carried out using a ACQUITY UPLC® BEH C18 (2.1 × 100 mm, 1.7 μm Waters) at a flow rate of 0.2 mL/min and UV detector at 316 nm. The mobile phase was consisted of ultrapure water containing 0.5% formic acid (A) and acetonitrile (B). The following gradient condition was used: 0–3.5 min, 10–65% B; 3.5–4.0 min, 65% B; 4.0–9.0 min, 10% B. To calculate the standard curve 0.1–100 μM of 4-MUG was used through drawing the peak area ration of 4-MUG/internal standard towards the concentration range of 4-MUG. The curve was linear over this concentration range, with an r^2 value > 0.99.
(§3) The inhibition type and Kinetics were determined for the inhibition of NTR towards UGT1A3, UGT1A7 and UGT1A9. The glucuronidation velocity of 4-MU was determined at multiple concentrations of 4-MU and NTR. Dixon and Lineweaver–Burk plots were employed to determine the inhibition type, and the second plot of the slopes from the Lineweaver–Burk plot versus the compound concentrations was utilized to calculate the Ki value. The determination of IC50 was calculated using Probit analysis in SPSS11.5 (SPSS, Chicago, IL, USA). The Student’s t-test was adopted at a significance level of p < 0.05 to determine statistically significant differences among experimental groups.

[2] = biological target: T2, UGT1A7 (Homo sapiens, UniProt Q9HAW7); experiment: as above; format: biochemical; conditions: for inhibition at 30 min, 100 µM: human, pH 7.4, probe 4-methylumbelliferone (4-MU), 30 μM, 100 μM compound, 4-MU probe substrate, negative = activation
T2 construct: purchased BD Gentest Corp. (Woburn, MA, USA); host or cells: baculovirus-infected insect cells
T2 sequence (Q9HAW7 26-530): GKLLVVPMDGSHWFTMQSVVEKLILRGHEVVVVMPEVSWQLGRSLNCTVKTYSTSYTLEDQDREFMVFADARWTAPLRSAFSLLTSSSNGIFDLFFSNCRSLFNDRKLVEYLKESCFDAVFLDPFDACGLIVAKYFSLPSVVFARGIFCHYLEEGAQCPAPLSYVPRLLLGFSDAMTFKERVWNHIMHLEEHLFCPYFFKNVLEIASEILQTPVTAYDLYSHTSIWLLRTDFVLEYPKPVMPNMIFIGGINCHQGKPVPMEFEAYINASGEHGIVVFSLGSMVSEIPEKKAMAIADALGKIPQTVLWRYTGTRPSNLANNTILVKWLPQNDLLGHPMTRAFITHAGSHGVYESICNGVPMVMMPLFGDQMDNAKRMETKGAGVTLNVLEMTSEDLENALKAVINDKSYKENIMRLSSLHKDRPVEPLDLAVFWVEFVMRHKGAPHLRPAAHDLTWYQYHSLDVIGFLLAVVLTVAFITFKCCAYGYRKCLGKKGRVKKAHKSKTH
Experimental: as §1, §2, §3

inhibition at 120 min, 100 µM [1] [%] | IC50 ([2]; 4-MU glucuronidation, Probit analysis, read-out: IC50 towards UGT1A7) [µM] | inhibition type towards UGT1A7 ([2]; Dixon plot and Lineweaver-Burk plot) | inhibition at 30 min, 100 µM [2] [%] | Ki ([2]; second plot of Lineweaver-Burk slopes, read-out: inhibition constant (Ki) towards UGT1A7) [µM] | Structure (SMILES)
-5.5 | 4.4 | competitively inhibited | 94.9 | 2 | O=c1c2cc(O)c(O)cc2oc2cc(O)cc(O)c12 [NTR, 1,3,6,7-tetrahydroxyxanthone]
-61.9 |  |  | 26.7 |  | O=c1c2cc(O)c(O)cc2oc2cc(O)c([C@@H]3O[C@H](CO)[C@@H](O)[C@H](O)[C@H]3O)c(O)c12 [MGF, 1,3,6,7-tetrahydroxyxanthone-C-2-β-D-glucoside]
